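Assay format: 96-well plates, 48-hour exposure. GI50: concentration for 50% inhibition of growth. TGI: concentration producing complete growth inhibition.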
Assays:
Assay in all cases: DTP human tumour cell line panel, 48 h
SW-620 colon = test system: SW-620 colon
HL-60(TB) leukemia = test system: HL-60(TB) leukemia
SK-OV-3 ovarian = test system: SK-OV-3 ovarian
COLO 205 colon = test system: COLO 205 colon
SK-MEL-5 melanoma = test system: SK-MEL-5 melanoma
MDA-MB-231 breast = test system: MDA-MB-231 breast
UACC-62 melanoma = test system: UACC-62 melanoma
HOP-62 NSCLC = test system: HOP-62 NSCLC
UACC-257 melanoma = test system: UACC-257 melanoma
A549 NSCLC = test system: A549 NSCLC
MCF7 breast = test system: MCF7 breast
ACHN renal = test system: ACHN renal
RXF 393 renal = test system: RXF 393 renal
SF-268 CNS = test system: SF-268 CNS
SK-MEL-2 melanoma = test system: SK-MEL-2 melanoma
HCT-116 colon = test system: HCT-116 colon
MALME-3M melanoma = test system: MALME-3M melanoma
MDA-MB-435 = test system: MDA-MB-435
CCRF-CEM leukemia = test system: CCRF-CEM leukemia
RPMI-8226 leukemia = test system: RPMI-8226 leukemia
HT29 colon = test system: HT29 colon
HCC-2998 colon = test system: HCC-2998 colon
NCI-H522 lung = test system: NCI-H522 lung
SN12C renal = test system: SN12C renal
DU-145 prostate = test system: DU-145 prostate
NCI-H226 lung = test system: NCI-H226 lung
CAKI-1 renal = test system: CAKI-1 renal
HOP-92 NSCLC = test system: HOP-92 NSCLC
SNB-19 CNS = test system: SNB-19 CNS
SR leukemia = test system: SR leukemia
OVCAR-5 ovarian = test system: OVCAR-5 ovarian
HS 578T breast = test system: HS 578T breast
K-562 leukemia = test system: K-562 leukemia
T-47D breast = test system: T-47D breast
U251 CNS = test system: U251 CNS
NCI-H460 lung = test system: NCI-H460 lung
KM12 colon = test system: KM12 colon
OVCAR-4 ovarian = test system: OVCAR-4 ovarian
LOX IMVI melanoma = test system: LOX IMVI melanoma
PC-3 prostate = test system: PC-3 prostate
SF-539 CNS = test system: SF-539 CNS
SNB-75 CNS = test system: SNB-75 CNS
786-0 renal = test system: 786-0 renal
OVCAR-3 ovarian = test system: OVCAR-3 ovarian
UO-31 renal = test system: UO-31 renal
IGROV1 ovarian = test system: IGROV1 ovarian
SF-295 CNS = test system: SF-295 CNS
HCT-15 colon = test system: HCT-15 colon
NCI-H23 lung = test system: NCI-H23 lung
MOLT-4 leukemia = test system: MOLT-4 leukemia
OVCAR-8 ovarian = test system: OVCAR-8 ovarian
NCI/ADR-RES ovarian = test system: NCI/ADR-RES ovarian
EKVX NSCLC = test system: EKVX NSCLC
M14 melanoma = test system: M14 melanoma
TK-10 renal = test system: TK-10 renal

`Cc1cc(S(=O)(=O)Nc2nc3cc(-c4ccsc4)sc3c(=O)n2N)c(S)cc1Cl` showed a GI50 (SW-620 colon) of over 100 µM, a TGI (SW-620 colon) of over 100 µM and a GI50 (HL-60(TB) leukemia) of over 100 µM. It also gave a TGI (HL-60(TB) leukemia) of over 100 µM, a GI50 (SK-OV-3 ovarian) of 88.6 µM and a TGI (SK-OV-3 ovarian) of over 100 µM. For the same compound, the GI50 (COLO 205 colon) was over 100 µM, the TGI (COLO 205 colon) was over 100 µM and the GI50 (SK-MEL-5 melanoma) was 38.4 µM. It also gave a TGI (SK-MEL-5 melanoma) of over 100 µM, a GI50 (MDA-MB-231 breast) of 15.7 µM and a TGI (MDA-MB-231 breast) of over 100 µM. It also gave a GI50 (UACC-62 melanoma) of 24.8 µM, a TGI (UACC-62 melanoma) of 72.2 µM and a GI50 (HOP-62 NSCLC) of 50 µM. It also gave a TGI (HOP-62 NSCLC) of over 100 µM, a GI50 (UACC-257 melanoma) of over 100 µM and a TGI (UACC-257 melanoma) of over 100 µM. For the same compound, the GI50 (A549 NSCLC) was 47.4 µM, the TGI (A549 NSCLC) was over 100 µM and the GI50 (MCF7 breast) was 46.9 µM. For the same compound, the TGI (MCF7 breast) was over 100 µM, the GI50 (ACHN renal) was 30.4 µM and the TGI (ACHN renal) was over 100 µM. For the same compound, the GI50 (RXF 393 renal) was over 100 µM, the TGI (RXF 393 renal) was over 100 µM and the GI50 (SF-268 CNS) was 35.7 µM. It also gave a TGI (SF-268 CNS) of over 100 µM, a GI50 (SK-MEL-2 melanoma) of over 100 µM and a TGI (SK-MEL-2 melanoma) of over 100 µM. For the same compound, the GI50 (HCT-116 colon) was 47.4 µM, the TGI (HCT-116 colon) was over 100 µM and the GI50 (MALME-3M melanoma) was over 100 µM. The TGI (MALME-3M melanoma) was over 100 µM, the GI50 (MDA-MB-435) was 85.3 µM and the TGI (MDA-MB-435) was over 100 µM. The GI50 (CCRF-CEM leukemia) was 64.7 µM, the TGI (CCRF-CEM leukemia) was over 100 µM and the GI50 (RPMI-8226 leukemia) was over 100 µM. The TGI (RPMI-8226 leukemia) was over 100 µM, the GI50 (HT29 colon) was 30.4 µM and the TGI (HT29 colon) was over 100 µM. For the same compound, the GI50 (HCC-2998 colon) was 48.4 µM, the TGI (HCC-2998 colon) was over 100 µM and the GI50 (NCI-H522 lung) was over 100 µM. It also gave a TGI (NCI-H522 lung) of over 100 µM, a GI50 (SN12C renal) of over 100 µM and a TGI (SN12C renal) of over 100 µM. The GI50 (DU-145 prostate) was over 100 µM, the TGI (DU-145 prostate) was over 100 µM and the GI50 (NCI-H226 lung) was 49.7 µM. For the same compound, the TGI (NCI-H226 lung) was over 100 µM, the GI50 (CAKI-1 renal) was over 100 µM and the TGI (CAKI-1 renal) was over 100 µM. It also gave a GI50 (HOP-92 NSCLC) of over 100 µM, a TGI (HOP-92 NSCLC) of over 100 µM and a GI50 (SNB-19 CNS) of 86 µM. For the same compound, the TGI (SNB-19 CNS) was over 100 µM, the GI50 (SR leukemia) was over 100 µM and the TGI (SR leukemia) was over 100 µM. For the same compound, the GI50 (OVCAR-5 ovarian) was over 100 µM, the TGI (OVCAR-5 ovarian) was over 100 µM and the GI50 (HS 578T breast) was 35.7 µM. The TGI (HS 578T breast) was over 100 µM, the GI50 (K-562 leukemia) was 52 µM and the TGI (K-562 leukemia) was over 100 µM. It also gave a GI50 (T-47D breast) of 28.8 µM, a TGI (T-47D breast) of over 100 µM and a GI50 (U251 CNS) of 34.1 µM. The TGI (U251 CNS) was over 100 µM, the GI50 (NCI-H460 lung) was 31.4 µM and the TGI (NCI-H460 lung) was over 100 µM. For the same compound, the GI50 (KM12 colon) was 68.6 µM, the TGI (KM12 colon) was over 100 µM and the GI50 (OVCAR-4 ovarian) was 69.6 µM. It also gave a TGI (OVCAR-4 ovarian) of over 100 µM, a GI50 (LOX IMVI melanoma) of 60.7 µM and a TGI (LOX IMVI melanoma) of over 100 µM. The GI50 (PC-3 prostate) was 47.6 µM, the TGI (PC-3 prostate) was over 100 µM and the GI50 (SF-539 CNS) was 67.4 µM. For the same compound, the TGI (SF-539 CNS) was over 100 µM, the GI50 (SNB-75 CNS) was over 100 µM and the TGI (SNB-75 CNS) was over 100 µM. The GI50 (786-0 renal) was 90.9 µM, the TGI (786-0 renal) was over 100 µM and the GI50 (OVCAR-3 ovarian) was over 100 µM. It also gave a TGI (OVCAR-3 ovarian) of over 100 µM, a GI50 (UO-31 renal) of over 100 µM and a TGI (UO-31 renal) of over 100 µM. For the same compound, the GI50 (IGROV1 ovarian) was over 100 µM, the TGI (IGROV1 ovarian) was over 100 µM and the GI50 (SF-295 CNS) was 29.7 µM. For the same compound, the TGI (SF-295 CNS) was over 100 µM, the GI50 (HCT-15 colon) was 59.2 µM and the TGI (HCT-15 colon) was over 100 µM. For the same compound, the GI50 (NCI-H23 lung) was over 100 µM, the TGI (NCI-H23 lung) was over 100 µM and the GI50 (MOLT-4 leukemia) was 68 µM. The TGI (MOLT-4 leukemia) was over 100 µM, the GI50 (OVCAR-8 ovarian) was 68.1 µM and the TGI (OVCAR-8 ovarian) was over 100 µM. For the same compound, the GI50 (NCI/ADR-RES ovarian) was 50.6 µM, the TGI (NCI/ADR-RES ovarian) was over 100 µM and the GI50 (EKVX NSCLC) was over 100 µM. The TGI (EKVX NSCLC) was over 100 µM, the GI50 (M14 melanoma) was over 100 µM and the TGI (M14 melanoma) was over 100 µM. It also gave a GI50 (TK-10 renal) of over 100 µM and a TGI (TK-10 renal) of over 100 µM.

From PubChem BioAssay (NCI)
